Assay results from patent publication US20230144845A1 (The Regents of the University of California, priority 2016, published 2023).
“Also recorded” adds a separate entry of the source.

Assays:
Type in all cases: in vivo
C. elegans = experiment: Lifespan of adult worms (C. elegans); conditions: P<0.0001 (log-rank test) vs vehicle
6-week old C57/B6 mice [1] = experiment: Topical treatment of shaved dorsal skin of young mice: pigmentation and hair growth; conditions: 16 mM in Transdermal Gel, topical every other day, vs control
Procedure: Mice were topically (unless indicated otherwise) treated every other day with the indicated amount and photos were taken every week. Mice were monitored for the appearance of skin pigmentation, signaling the initiation of anagen. No hair growth (and no pigmentation) was assigned the arbitrary value of 0. Skin darkening was given a value from 0 to 100%, with the higher number indicating darker skin and visible hair growth.
Compounds were dissolved in Transdermal Gel at 16 mM and applied on mice dorsal skin every other day. To show the pigmentation progression, the appearance of skin pigmentation, signaling the initiation of anagen, was assigned an arbitrary value based on skin darkening. No hair growth (and no pigmentation) was assigned a value of 0 and darker skin/visible hair growth was assigned with higher numbers. Photos were taken weekly to document the pigmentation/hair changes.
Dorsal hair was shaved by trimmer at Week 7 and α-KB acid was dissolved in Transdermal Gel at 16 mM and applied on mice dorsal skin every other day.

6-week old C57/B6 mice [2] = experiment: Oral α-KG in drinking water in young mice: hair growth; conditions: 16 mM in drinking water, 10 weeks, vs negative controls
Procedure: (§1) Additionally, α-KG was administrated in drinking water to 6-week old C57/B6 mice for 10 weeks. α-KG was dissolved at 16 mM and water was changed every other day to ensure the integrity of the compound. Oral administration of α-KB was tested in 101-week old C57/B6 mice and lasted for 30 weeks. The concentration of α-KB was 8 mM and water was changed weekly. Pigmentation/hair changes were also monitored by assigning arbitrary values and photos.

[3] = system: 101-week old C57BL/6J mice; experiment: Oral α-KB in drinking water in aged mice: survival, aging traits, hair
Procedure: as §1
Based on the lifespan extending effects of α-KB in C. elegans (FIG. 2), the anti-aging properties in mice were examined. Aged 101-week old C57BL/6J mice were treated with 8 mM α-KB acid dissolved in drinking water for up to 30 weeks.

Structure (SMILES) | mean lifespan (days of adulthood) (C. elegans) | hair growth (6-week old C57/B6 mice [1]) | skin pigmentation (initiation of anagen) (6-week old C57/B6 mice [1]) | hair growth after oral administration (6-week old C57/B6 mice [2]) | aging traits (such as cataracts) ([3]; aged mice, 8 mM in drinking water) | age-related hair loss / hair pigmentation and density on dorsal skin ([3]; aged mice, not shaved, 8 mM in drinking water, vs control) | lifespan / survival of old male mice ([3]; old male C57BL/6J mice, 8 mM in drinking water from 101 weeks for up to 30 weeks, P=0.0476 (Fisher's exact test))
CC[C@H](O)C(=O)O [2-HB, 2-hydroxybutyrate] | 19.8 days of adulthood | had hair growing back faster; also recorded: accelerated pigmentation and hair growth on Day 14 | showed pigmentation earlier; also recorded: pigmentation improved; also recorded: accelerated pigmentation |  |  |  | 
O=C(O)CCC(=O)C(=O)O [α-KG, alpha-ketoglutarate] | 26.1 days of adulthood |  |  | confirmed its effects for hair growth; also recorded: significantly induces hair growth |  |  | 
CCC(=O)C(=O)O [α-KB, alpha-ketobutyrate] | 22.4 days of adulthood | hair growth was accelerated; also recorded: stimulates hair growth by Day 14 | started to show pigmentation patches after one week; also recorded: improved pigmentation |  | prevented aging traits in aged mice | exhibited black and thick hair; also recorded: delays or reduces age-related hair loss | significantly increased survival to beyond 131 weeks of age in male animals; also recorded: increases the lifespan of old male C57BL/6J mice
